Source: patent publication US20120131687A1 (priority 2008, published 2012)

Legend:
cotton aphid seizure D2 [1] = molecular target: T1, cotton aphid seizure D2 (Aphis gossypii, UniProt A0A9P0IRJ5, DEL620-651/K982T, form not given); assay: Electrophysiological analysis by two-electrode voltage clamp (TEVC) method using Xenopus laevis oocyte; assay type: cell-based; details: read-out: IC50 on cotton aphid seizure D2, protocol IV
Source text: Regarding four kinds of cotton aphid seizure splice variants (D1, D2, E1, E2), a gene optimal for producing a gene-recombinant nematode was selected by electrophysiological analysis by the two-electrode voltage clamp method (TEVC method) using an oocyte of Xenopus laevis.
In order to continuously maintain circulation and cleaning of water, female Xenopus laevis was reared in a water bath equipped with an air pump and a filtration device. For Xenopus laevis, a laboratory rearing line was purchased from NASCO (Fort Atkinson, Wis., USA), and adapted to a dry sample, and used in an experiment. Xenopus laevis was reared in tap water retained at a water temperature of 18° C., and a light/dark cycle of each 12 hours was artificially given. Xenopus laevis was anesthetized using a 2 g/l tolycaine aqueous solution, and subsequently cooled with an ice. […]
Using an amplifier TEC-03X manufactured by npi electronics (Tamm, Germany), and software Cellworks, an electrophysiological measurement was performed by the two-electrode voltage clamp method. Experimental data was recorded at room temperature (20 to 25° C.). […]
An activity of a compound was measured using protocol IV by the following procedure. […]
At each test concentration, an amplitude of a current waveform in last three times of continuous pulses was averaged, and a calculated current value was used for calculating an inhibition degree. […]

cotton aphid seizure D2 [2] = molecular target: T1, cotton aphid seizure D2; assay: Whole cell patch clamp method using CHO cell expressing cotton aphid seizure D2; assay type: cell-based; details: 30 μM clofilium
Method: Using a CHO cell expressing cotton aphid seizure D2, an activity of a voltage-gated potassium channel was measured by a whole cell patch clamp method.
According to a general tissue culturing procedure, pGBB036 produced in Example 5 was transiently introduced into the CHO cell. In order to confirm that gene introduction is successful, a GFP gene which is a fluorescent marker was simultaneously introduced into the CHO cell. A ratio of pGBB036 and the marker gene was 10:1. It was possible to simply identify the cell for which gene introduction was successful with an incident-light fluorescence microscope. After cultured for 24 hours, the gene-introduced cell was dispensed, frozen, and immediately cryopreserved at −150° C. On the day before implementation of an electrophysiological experiment, the cryopreserved cell was suspended in a fresh medium again, and the cell was seeded on a cover glass having a diameter of 12 mm which was spread in a petri dish. The petri dish was retained at a temperature of 37° C. under the condition of CO2 at a 5% concentration. […]
Recording by the whole cell patch clamp method was implemented on one CHO cell. […] Recorded signals were all amplified with an amplifier PC-501A manufactured by Warner Instruments (Hamden, Conn., USA) and, thereafter, was digitalized at 10 kHz. […]

cotton aphid seizure D2 [3] = molecular target: T1, cotton aphid seizure D2; assay: Electropharyngeogram of recombinant nematode UG2242 expressing cotton aphid seizure D2; assay type: in vivo
Method: By recording a electropharyngeogram using UG2242 which is a transient transformed line, and UG2346 which is a stable transformed line, it was confirmed that the introduced cotton aphid seizure gene was expressed in a functional form.
An imago of a nematode reared at 20° C. was prepared. Using Dent's saline (composition in mM; D-glucose 10 mM, HEPES 10 mM, NaCl 140 mM, KCl 6 mM, CaCl2 3 mM, MgCl2 1 mM, pH 7.4) containing 20 mM serotonin promoting pumping as a chamber internal solution, the nematode was placed into the chamber. Aspiration was performed until the Dent's saline which is a chamber internal solution was contacted with an electrode in a micropipette. After mild aspiration, a head of the nematode was inserted into a tip of a pipette for recording. Data was obtained with an amplifier (Multiclamp 700-A, Axon instruments) and an A/D converter (Digidata 1322A, Axon instruments).

[4] = molecular target: nematode functionally expressing cotton aphid seizure (Aphis gossypii, UniProt A0A9P0IRJ5, DEL620-651/K982T, form not given); assay: Feeding behavior activity (calcein AM intake) of recombinant nematode UG2346 functionally expressing cotton aphid seizure; assay type: in vivo; details: read-out: Activity to inhibit feeding behavior of nematode functionally expressing cotton aphid seizure (IC50), 0.03-100 μM
Method: In the pharynx of a gene-altered nematode, change in electric activity in cotton aphid seizure influences on an action of the pharynx, that is, intake of food. Therefore, the ability to change an activity of cotton aphid seizure can be measured as the ability to change intake of food, of the gene-recombinant nematode.
Intake of food of the nematode was measured by a method of adding a fluorescent dye precursor to a medium. Specifically, since the fluorescent dye precursor orally taken by the nematode is enzymatically converted into a fluorescent dye in the gut, and a fluorescent signal emitted by the gene-recombinant nematode is increased, intake of food of the nematode can be measured as a fluorescent signal emitted by the nematode.
For measuring the activity to change a feeding behavior activity of a nematode expressing cotton aphid seizure in a functional form, a fluorescent dye precursor was added to a liquid medium containing the nematode expressing cotton aphid seizure in a functional form, and intake of the fluorescent dye precursor orally ingested by the nematode was detected as a fluorescent signal emitted by the nematode. When intake of the fluorescent dye precursor was defined as a feeding behavior activity, an influence of a test substance on a feeding behavior activity was assessed as an influence, on an activity of cotton aphid seizure. […]

Aphis gossypii = assay: Pesticidal activity test on artificial feed; assay type: in vivo; details: 50 ppm in artificial feed, six days, controlling value of 30% or more = active
Method: Then, according to the same manner as that of the method described in Handbook of Insect Rearing Vol. 1 (Elsevier Science Publishers 1985) pp. 35 to pp. 36 except that a test compound dissolved in DMSO to a final concentration of 50 ppm was added at 0.5% volume of the artificial feed, and components were mixed, Aphis gossypii was reared. […] Controlling value(%)={1−(Cb×Tai)/(Cai×Tb)}×100 Letters in the equation represent the following meanings. Cb: Number of surviving worms before treatment in non-treated section Cai: Number of surviving worms at observation in non-treated section Tb: Number of surviving worms before treatment in treated section Tai: Number of surviving worms at observation in treated section

nematode = details: Drinking Assay, WO 01/88532; cited from earlier work

T1 sequence (A0A9P0IRJ5 entry or part of it DEL620-651/K982T, form open): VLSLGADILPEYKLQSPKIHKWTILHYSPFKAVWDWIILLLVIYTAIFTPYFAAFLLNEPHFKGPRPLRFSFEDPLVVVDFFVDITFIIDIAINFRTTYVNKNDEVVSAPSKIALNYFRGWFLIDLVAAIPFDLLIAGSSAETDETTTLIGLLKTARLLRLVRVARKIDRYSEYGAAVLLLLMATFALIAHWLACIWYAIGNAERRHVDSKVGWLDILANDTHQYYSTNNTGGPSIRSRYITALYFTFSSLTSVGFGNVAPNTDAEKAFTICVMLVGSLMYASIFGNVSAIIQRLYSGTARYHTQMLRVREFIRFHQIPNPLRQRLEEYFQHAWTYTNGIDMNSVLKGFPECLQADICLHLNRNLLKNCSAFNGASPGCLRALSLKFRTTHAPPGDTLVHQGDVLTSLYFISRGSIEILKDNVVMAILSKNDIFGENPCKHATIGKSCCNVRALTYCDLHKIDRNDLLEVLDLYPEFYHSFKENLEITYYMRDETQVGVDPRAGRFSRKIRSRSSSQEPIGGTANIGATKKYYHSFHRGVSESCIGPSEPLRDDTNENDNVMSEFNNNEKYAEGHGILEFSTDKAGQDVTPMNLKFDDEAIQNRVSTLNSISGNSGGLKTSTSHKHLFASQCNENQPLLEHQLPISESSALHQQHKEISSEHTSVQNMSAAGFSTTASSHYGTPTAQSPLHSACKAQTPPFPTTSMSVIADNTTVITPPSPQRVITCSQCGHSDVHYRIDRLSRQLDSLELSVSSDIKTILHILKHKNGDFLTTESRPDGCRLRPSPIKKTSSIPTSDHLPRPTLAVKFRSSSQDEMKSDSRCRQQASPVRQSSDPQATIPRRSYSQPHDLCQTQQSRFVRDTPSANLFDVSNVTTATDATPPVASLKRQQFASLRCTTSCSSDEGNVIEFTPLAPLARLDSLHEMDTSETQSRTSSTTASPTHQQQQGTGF
Sequence of nematode functionally expressing cotton aphid seizure (A0A9P0IRJ5 entry or part of it DEL620-651/K982T, form open): as above

## CN(CCOc1ccc(NS(C)(=O)=O)cc1)CCc1ccc(NS(C)(=O)=O)cc1 [Dofetilide]
Cotton aphid seizure D2 [1]
  IC50: ~23 µM

## CCCCCCC[N+](CC)(CC)CCCCc1ccc(Cl)cc1.Cc1ccc(S(=O)(=O)[O-])cc1 [clofilium]
Cotton aphid seizure D2 [1]
  IC50: ~1 µM
Cotton aphid seizure D2 [2]
  activity of a channel inhibited relative to non-treatment: 86%
Cotton aphid seizure D2 [3]; 5 μM treatment for 5 minutes
  length of a potential waveform in electropharyngeogram: significantly increased
Cotton aphid seizure D2 [3]; 5 μM treatment, after 15 minutes
  potential waveform in electropharyngeogram: the same potential waveform as that of a wild-type
[4]
  IC50: 4 µM
Aphis gossypii
  Result of determination of insecticidal activity: Having insecticidal activity

## CN(C)CCCN1c2ccccc2CCc2ccc(Cl)cc21 [clomipramine]
nematode
  food intake by a nematode: increases food intake

## ivermectin
nematode
  food intake by a nematode: inhibits food intake
